Data as given in ChEMBL document CHEMBL1909046, “DrugMatrix in vitro pharmacology data”.

Legend:
[1] = DRUGMATRIX: GABAA, Chloride Channel, TBOB radioligand binding (ligand: [3H] TBOB); format: cell membranes, Rattus norvegicus, Wistar, Cerebral cortex, Membrane; details: Not Active = under 50% inhibition at 10 µM
Insulin receptor = Insulin receptor (Rattus norvegicus, UniProt P15127); format: cell membranes, Wistar, Liver, Membrane; note: in other assays of this panel Not Active means under 50% inhibition at 10 µM
Sequence of Insulin receptor (P15127 27-759 limits assumed): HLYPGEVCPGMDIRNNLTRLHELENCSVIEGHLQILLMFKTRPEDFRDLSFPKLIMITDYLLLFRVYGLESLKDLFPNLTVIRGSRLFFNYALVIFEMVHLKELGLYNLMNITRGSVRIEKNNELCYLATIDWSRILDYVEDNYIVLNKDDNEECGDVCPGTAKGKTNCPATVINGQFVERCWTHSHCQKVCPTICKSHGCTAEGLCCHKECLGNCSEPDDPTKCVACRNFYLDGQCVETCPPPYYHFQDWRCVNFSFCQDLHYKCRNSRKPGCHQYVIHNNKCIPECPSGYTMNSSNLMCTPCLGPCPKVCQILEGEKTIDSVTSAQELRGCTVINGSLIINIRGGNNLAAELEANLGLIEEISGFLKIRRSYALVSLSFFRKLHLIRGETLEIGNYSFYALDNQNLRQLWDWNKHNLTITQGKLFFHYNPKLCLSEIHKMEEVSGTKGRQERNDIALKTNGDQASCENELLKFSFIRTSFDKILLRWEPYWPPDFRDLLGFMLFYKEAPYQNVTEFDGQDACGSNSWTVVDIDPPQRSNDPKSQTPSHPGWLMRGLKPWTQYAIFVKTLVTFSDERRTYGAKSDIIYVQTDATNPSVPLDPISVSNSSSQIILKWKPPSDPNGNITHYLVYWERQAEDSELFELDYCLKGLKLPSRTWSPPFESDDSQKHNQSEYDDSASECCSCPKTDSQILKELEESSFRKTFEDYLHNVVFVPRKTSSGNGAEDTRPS
Sequence of Insulin receptor (P15127 764-1383 limits assumed): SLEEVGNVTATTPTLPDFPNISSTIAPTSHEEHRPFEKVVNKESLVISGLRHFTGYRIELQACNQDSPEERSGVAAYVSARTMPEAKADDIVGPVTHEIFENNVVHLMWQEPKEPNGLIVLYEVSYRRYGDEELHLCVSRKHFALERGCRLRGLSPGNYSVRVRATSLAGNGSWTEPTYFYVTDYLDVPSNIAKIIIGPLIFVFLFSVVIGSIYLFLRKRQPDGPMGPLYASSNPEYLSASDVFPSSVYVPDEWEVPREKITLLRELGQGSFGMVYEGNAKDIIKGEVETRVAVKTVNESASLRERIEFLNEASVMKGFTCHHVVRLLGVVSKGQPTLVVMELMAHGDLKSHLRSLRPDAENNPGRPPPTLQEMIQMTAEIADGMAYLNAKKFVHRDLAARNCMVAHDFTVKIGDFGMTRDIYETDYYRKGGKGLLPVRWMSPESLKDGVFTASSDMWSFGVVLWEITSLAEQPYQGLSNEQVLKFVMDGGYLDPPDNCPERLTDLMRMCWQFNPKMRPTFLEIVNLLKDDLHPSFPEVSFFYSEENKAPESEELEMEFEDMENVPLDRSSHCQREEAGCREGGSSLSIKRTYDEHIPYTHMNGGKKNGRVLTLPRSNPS

Melanocortin receptor 4 = Melanocortin receptor 4 (Homo sapiens, UniProt P32245); format: cell membranes, Membrane; details: hek293; note: in other assays of this panel Not Active means under 50% inhibition at 10 µM
Sequence of Melanocortin receptor 4 (P32245 whole entry): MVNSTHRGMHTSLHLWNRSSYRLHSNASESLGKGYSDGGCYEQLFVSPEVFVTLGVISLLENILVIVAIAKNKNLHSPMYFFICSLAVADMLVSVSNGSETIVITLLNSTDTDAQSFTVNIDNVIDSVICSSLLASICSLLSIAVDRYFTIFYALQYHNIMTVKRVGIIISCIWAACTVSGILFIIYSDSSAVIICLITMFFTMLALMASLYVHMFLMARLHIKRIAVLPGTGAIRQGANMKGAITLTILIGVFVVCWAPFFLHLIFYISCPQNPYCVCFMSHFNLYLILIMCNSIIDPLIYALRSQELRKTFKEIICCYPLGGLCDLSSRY

[2] = DRUGMATRIX: Phosphodiesterase PDE3 enzyme inhibition (substrate: [3H]cAMP + cAMP); format: tissue-based, Homo sapiens; details: platelet; Not Active = under 50% inhibition at 10 µM
[3] = target: Receptor tyrosine-protein kinase erbB-2 (Homo sapiens, UniProt P04626); assay: biochemical; format: cell-based, Insect cells; details: insect cells;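 note: inhibition of HER2 kinase enzyme activity, measured with Poly(Glu:Tyr) as the phosphorylation substrate; in other assays of this panel Not Active means under 50% inhibition at 10 µM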
[4] = target: T1, Receptor-type tyrosine-protein phosphatase C (Homo sapiens, UniProt P08575); design: species or system Escherichia coli;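 note: inhibition of CD45 enzyme activity measured using DiFMUP as substrate; in other assays of this panel Not Active means under 50% inhibition at 10 µM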
T1 sequence (P08575 whole entry): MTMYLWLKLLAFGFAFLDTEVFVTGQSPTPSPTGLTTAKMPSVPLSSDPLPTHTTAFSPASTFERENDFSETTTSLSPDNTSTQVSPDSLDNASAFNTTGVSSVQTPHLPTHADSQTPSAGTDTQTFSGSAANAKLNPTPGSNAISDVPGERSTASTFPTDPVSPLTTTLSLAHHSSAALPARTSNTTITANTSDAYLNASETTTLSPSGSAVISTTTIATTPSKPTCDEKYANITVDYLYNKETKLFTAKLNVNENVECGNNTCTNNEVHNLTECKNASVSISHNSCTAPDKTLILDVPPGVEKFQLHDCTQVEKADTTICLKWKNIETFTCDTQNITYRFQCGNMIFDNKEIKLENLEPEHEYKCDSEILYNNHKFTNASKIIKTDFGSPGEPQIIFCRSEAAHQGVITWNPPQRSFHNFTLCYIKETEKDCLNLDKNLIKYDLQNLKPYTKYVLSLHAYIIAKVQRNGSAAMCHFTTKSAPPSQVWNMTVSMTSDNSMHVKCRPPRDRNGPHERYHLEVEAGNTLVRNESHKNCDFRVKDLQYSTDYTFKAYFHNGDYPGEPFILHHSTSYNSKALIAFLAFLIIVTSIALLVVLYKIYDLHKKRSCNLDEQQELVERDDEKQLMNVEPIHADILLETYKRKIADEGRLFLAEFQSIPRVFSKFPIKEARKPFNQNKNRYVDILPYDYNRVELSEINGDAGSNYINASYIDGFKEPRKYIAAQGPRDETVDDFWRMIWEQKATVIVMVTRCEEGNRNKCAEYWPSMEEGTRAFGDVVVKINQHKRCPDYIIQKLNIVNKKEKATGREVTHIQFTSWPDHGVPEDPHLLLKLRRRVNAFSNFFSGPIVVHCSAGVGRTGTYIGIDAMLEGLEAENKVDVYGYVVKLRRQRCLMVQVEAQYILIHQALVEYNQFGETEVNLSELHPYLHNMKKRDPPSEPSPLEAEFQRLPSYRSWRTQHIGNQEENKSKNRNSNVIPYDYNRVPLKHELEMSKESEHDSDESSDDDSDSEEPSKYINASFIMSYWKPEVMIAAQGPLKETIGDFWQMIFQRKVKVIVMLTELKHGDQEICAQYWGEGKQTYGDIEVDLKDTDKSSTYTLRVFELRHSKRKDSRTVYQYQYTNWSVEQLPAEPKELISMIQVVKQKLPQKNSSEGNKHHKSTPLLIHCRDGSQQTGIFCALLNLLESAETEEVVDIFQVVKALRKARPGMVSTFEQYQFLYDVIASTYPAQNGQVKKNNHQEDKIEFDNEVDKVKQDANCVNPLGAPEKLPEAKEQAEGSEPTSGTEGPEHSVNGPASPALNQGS

Cytochrome P450 2D6 = Cytochrome P450 2D6 (Homo sapiens, UniProt P10635); details: bti-tn-5b1-4; note: in other assays of this panel Not Active means under 50% inhibition at 10 µM
Sequence of Cytochrome P450 2D6 (P10635 whole entry): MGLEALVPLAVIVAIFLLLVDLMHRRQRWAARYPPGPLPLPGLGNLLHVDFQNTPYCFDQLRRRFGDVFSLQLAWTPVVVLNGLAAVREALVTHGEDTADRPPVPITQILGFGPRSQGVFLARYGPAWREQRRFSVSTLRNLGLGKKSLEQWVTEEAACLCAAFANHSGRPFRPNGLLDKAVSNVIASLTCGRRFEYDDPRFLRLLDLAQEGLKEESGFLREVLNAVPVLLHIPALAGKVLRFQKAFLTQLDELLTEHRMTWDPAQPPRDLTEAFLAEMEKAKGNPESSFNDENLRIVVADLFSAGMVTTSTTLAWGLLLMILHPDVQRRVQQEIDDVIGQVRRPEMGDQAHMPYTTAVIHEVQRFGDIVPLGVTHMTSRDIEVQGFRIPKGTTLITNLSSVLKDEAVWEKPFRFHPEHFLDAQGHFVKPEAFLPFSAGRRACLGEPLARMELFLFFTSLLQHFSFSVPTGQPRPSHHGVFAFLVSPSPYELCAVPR

Estrogen receptor = target: T2, Estrogen receptor (Homo sapiens, UniProt P03372); details: sf9; note: in other assays of this panel Not Active means under 50% inhibition at 10 µM
T2 sequence (P03372 whole entry): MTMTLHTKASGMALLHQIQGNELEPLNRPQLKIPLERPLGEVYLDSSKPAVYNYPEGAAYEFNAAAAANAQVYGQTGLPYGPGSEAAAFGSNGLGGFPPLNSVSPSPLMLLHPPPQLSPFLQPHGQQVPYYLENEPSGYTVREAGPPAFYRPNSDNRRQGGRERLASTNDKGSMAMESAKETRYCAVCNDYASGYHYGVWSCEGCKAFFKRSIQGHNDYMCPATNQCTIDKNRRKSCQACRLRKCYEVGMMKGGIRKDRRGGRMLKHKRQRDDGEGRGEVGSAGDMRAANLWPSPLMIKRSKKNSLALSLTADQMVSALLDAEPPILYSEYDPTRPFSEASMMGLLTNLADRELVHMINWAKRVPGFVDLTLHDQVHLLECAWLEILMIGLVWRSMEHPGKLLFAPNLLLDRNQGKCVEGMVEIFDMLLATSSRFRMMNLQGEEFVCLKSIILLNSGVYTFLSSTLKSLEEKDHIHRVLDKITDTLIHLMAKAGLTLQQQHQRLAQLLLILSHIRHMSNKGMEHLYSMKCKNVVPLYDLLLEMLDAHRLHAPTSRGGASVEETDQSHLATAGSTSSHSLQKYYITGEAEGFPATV

CCCNC(C)C(=O)Nc1ccccc1C (stereo not given) [PRILOCAINE]
Not Active: IC50 [1] | Ki [1] | IC50 (Insulin receptor) | IC50 (Melanocortin receptor 4) | IC50 [2] | Ki [2] | IC50 [3] | IC50 [4] | IC50 (Cytochrome P450 2D6) | Ki (Cytochrome P450 2D6) | IC50 (Estrogen receptor)

CCN(CC)CCCC(C)Nc1c2ccc(Cl)cc2nc2ccc(OC)cc12 (stereo not given) [QUINACRINE]
Not Active: IC50 [1] | Ki [1] | IC50 (Insulin receptor) | IC50 (Melanocortin receptor 4) | IC50 [2] | Ki [2] | IC50 [3] | IC50 [4] | IC50 (Cytochrome P450 2D6) | Ki (Cytochrome P450 2D6) | IC50 (Estrogen receptor)

C[C@]12C=CC(=O)C=C1CC[C@H]1[C@@H]3C[C@@H](O)[C@](O)(C(=O)CO)[C@@]3(C)C[C@H](O)[C@@]12F [TRIAMCINOLONE]
Not Active: IC50 [1] | Ki [1] | IC50 (Insulin receptor) | IC50 (Melanocortin receptor 4) | IC50 [2] | Ki [2] | IC50 [3] | IC50 [4] | IC50 (Cytochrome P450 2D6) | Ki (Cytochrome P450 2D6) | IC50 (Estrogen receptor)

CCN(C(C)=O)c1cccc(-c2ccnc3c(C#N)cnn23)c1 [ZALEPLON]
Not Active: IC50 [1] | Ki [1] | IC50 (Insulin receptor) | IC50 (Melanocortin receptor 4) | IC50 [2] | Ki [2] | IC50 [3] | IC50 [4] | IC50 (Cytochrome P450 2D6) | Ki (Cytochrome P450 2D6) | IC50 (Estrogen receptor)

COBALTOUS CHLORIDE
Not Active: IC50 [1] | Ki [1] | IC50 (Insulin receptor) | Ki (Insulin receptor) | IC50 (Melanocortin receptor 4) | Ki (Melanocortin receptor 4) | IC50 [2] | Ki [2] | IC50 [3] | Ki [3] | IC50 [4] | Ki [4] | IC50 (Cytochrome P450 2D6) | Ki (Cytochrome P450 2D6) | IC50 (Estrogen receptor) | Ki (Estrogen receptor)
